Patent publication US20090209536A1, “AMINOQUINAZOLINE CANNABINOID RECEPTOR MODULATORS FOR TREATMENT OF DISEASE” (KALYPSYS, INC., priority 2007, published 2009)
Like-named read-outs stand apart in the source and are kept apart here.

Assays:
[1] = molecular target: T1, human cannabinoid receptor type 2 (Homo sapiens, UniProt P34972); assay: Human CB2 Radioligand Binding Assay; settings: membranes from stably transfected CHO CB2 cells
T1 construct: expressed in transfected cells; membrane preparation
Summary of the method: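 Test compounds (10 uM final, or dose-response) competed with [3H]CP-55,940, used at the Kd determined per membrane lot, for binding to stable human CB2-CHO membranes over 90 min at 30° C in pH 7.4 Tris/EGTA/MgCl2/BSA buffer. GF/C filtration then scintillation counting; 100 nM CP-55,940 defined 100% efficacy.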

[2] = molecular target: T2, human cannabinoid receptor type 1 (Homo sapiens, UniProt P21554); assay: Human CB1 Radioligand Binding Assay (basis of selectivity, CB2 vs. CB1); settings: CB1: HEK 293 EBNA cells expressing human CB1; CB2: CHO CB2 membranes
T2 construct: purchased Perkin Elmer RBHCB1M; host or cells: HEK 293 EBNA cells
Method: 2. Human CB1 Radioligand Binding Assay
The incubation buffer was composed of 50 mM Tris-HCl pH 7.4, 2.5 mM EDTA, 5 mM MgCl2, 5.0 mg/ml fatty acid free BSA and the wash buffer was composed of 50 mM Tris-HCl pH 7.4, 2.5 mM EDTA, 5 mM MgCl2, 0.5 mg/ml fatty acid free BSA.

[3] = CB2 Ligand Binding Asssay EC50, competition with [3H] CP-55,940
[4] = competition with [3H] CP-55,940, read-out: CB2 Ligand Binding Asssay EC50

T2 sequence (P21554 whole entry): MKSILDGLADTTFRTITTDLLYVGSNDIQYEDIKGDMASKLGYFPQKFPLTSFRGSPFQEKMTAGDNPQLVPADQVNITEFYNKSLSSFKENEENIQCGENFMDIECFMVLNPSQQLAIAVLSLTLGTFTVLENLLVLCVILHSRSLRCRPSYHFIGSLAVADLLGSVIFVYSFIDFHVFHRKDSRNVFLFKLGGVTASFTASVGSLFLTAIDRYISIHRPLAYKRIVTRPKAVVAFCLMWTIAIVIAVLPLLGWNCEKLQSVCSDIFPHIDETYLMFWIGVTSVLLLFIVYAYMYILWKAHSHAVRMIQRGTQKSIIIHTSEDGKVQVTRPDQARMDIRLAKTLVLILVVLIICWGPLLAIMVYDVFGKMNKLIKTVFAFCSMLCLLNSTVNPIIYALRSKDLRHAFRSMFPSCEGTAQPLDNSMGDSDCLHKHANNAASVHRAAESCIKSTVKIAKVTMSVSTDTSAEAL
T1 sequence (P34972 whole entry): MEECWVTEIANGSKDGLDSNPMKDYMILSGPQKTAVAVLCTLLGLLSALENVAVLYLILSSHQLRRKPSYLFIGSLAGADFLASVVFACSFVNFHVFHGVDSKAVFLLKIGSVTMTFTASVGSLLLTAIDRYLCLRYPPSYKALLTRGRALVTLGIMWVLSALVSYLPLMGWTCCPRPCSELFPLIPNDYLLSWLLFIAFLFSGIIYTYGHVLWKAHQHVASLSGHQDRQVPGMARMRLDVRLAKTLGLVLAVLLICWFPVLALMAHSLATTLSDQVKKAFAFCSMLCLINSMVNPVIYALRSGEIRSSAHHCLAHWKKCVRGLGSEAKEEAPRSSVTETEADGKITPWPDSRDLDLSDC

Structure (SMILES) | EC50 [1, 3] [nM] | Selectivity, CB2 vs. CB1 [2] | EC50 [1, 4] [nM]
CC(C)S(=O)(=O)N1CCN(c2nc(-c3ccccc3Cl)nc3ccccc23)CC1 [Example 83, 2-(2-Chlorophenyl)-4-[4-(propane-2-sulfonyl)piperazin-1-yl]quinazoline] | > 1000 | − (− indicates ≦ 10−fold) | –
CCCS(=O)(=O)N1CCN(c2nc(-c3ccccc3Cl)nc3ccccc23)CC1 [Example 84, 2-(2-Chlorophenyl)-4-(4-(propylsulfonyl)piperazin-1-yl)quinazoline] | – | − (− indicates ≦ 10−fold) | > 1000
CCS(=O)(=O)N1CCN(c2nc(-c3ccccc3Cl)nc3ccccc23)CC1 [Example 85, 2-(2-Chlorophenyl)-4-(4-(ethylsulfonyl)piperazin-1-yl)quinazoline] | > 1000 | − (− indicates ≦ 10−fold) | –
CS(=O)(=O)N1CCN(c2nc(-c3ccccc3Cl)nc3ccccc23)CC1 [Example 86, 2-(2-Chlorophenyl)-4-(4-(methylsulfonyl)piperazin-1-yl)quinazoline] | – | − (− indicates ≦ 10−fold) | < 1000
CCNC(=O)N1CCN(c2nc(-c3ccccc3Cl)nc3ccccc23)CC1 [Example 87, 4-(2-(2-chlorophenyl)quinazolin-4-yl)-N-ethylpiperazine-1-carboxamide] | – | − (− indicates ≦ 10−fold) | > 1000
CNC(=O)N1CCN(c2nc(-c3ccccc3Cl)nc3ccccc23)CC1 [Example 88, 4-(2-(2-Chlorophenyl)quinazolin-4-yl)-N-methylpiperazine-1-carboxamide] | – | − (− indicates ≦ 10−fold) | > 1000
CC(C)(C)NC(=O)N1CCN(c2nc(-c3ccccc3Cl)nc3ccccc23)CC1 [Example 89, N-tert-Butyl-4-(2-(2-chlorophenyl)quinazolin-4-yl)piperazine-1-carboxamide] | – | − (− indicates ≦ 10−fold) | > 1000
CC(C)NC(=O)N1CCN(c2nc(-c3ccccc3Cl)nc3ccccc23)CC1 [Example 90, 4-(2-(2-Chlorophenyl)quinazolin-4-yl)-N-isopropylpiperazine-1-carboxamide] | > 1000 | − (− indicates ≦ 10−fold) | –
CCCNC(=O)N1CCN(c2nc(-c3ccccc3Cl)nc3ccccc23)CC1 [Example 91, 4-(2-(2-Chlorophenyl)quinazolin-4-yl)-N-propylpiperazine-1-carboxamide] | > 1000 | − (− indicates ≦ 10−fold) | –
COC(=O)N1CCN(c2nc(-c3ccccc3Cl)nc3ccccc23)CC1 [Example 92, Methyl 4-(2-(2-Chlorophenyl)quinazolin-4-yl)piperazine-1-carboxylate] | – | − (− indicates ≦ 10−fold) | > 1000
CC(C)OC(=O)N1CCN(c2nc(-c3ccccc3Cl)nc3ccccc23)CC1 [Example 93, Isopropyl 4-(2-(2-chlorophenyl)quinazolin-4-yl)piperazine-1-carboxylate] | > 1000 | + (+ indicates > 10−fold) | –
CCCOC(=O)N1CCN(c2nc(-c3ccccc3Cl)nc3ccccc23)CC1 [Example 94, Propyl 4-(2-(2-chlorophenyl)quinazolin-4-yl)piperazine-1-carboxylate] | – | − (− indicates ≦ 10−fold) | > 1000
CCCC(=O)N1CCN(c2nc(-c3ccccc3Cl)nc3ccccc23)CC1 [Example 95, 1-(4-(2-(2-Chlorophenyl)quinazolin-4-yl)piperazin-1-yl)butan-1-one] | – | + (+ indicates > 10−fold) | < 1000
CC(C)C(=O)N1CCN(c2nc(-c3ccccc3Cl)nc3ccccc23)CC1 [Example 96, 1-(4-(2-(2-Chlorophenyl)quinazolin-4-yl)piperazin-1-yl)-2-methylpropan-1-one] | – | + (+ indicates > 10−fold) | < 1000
O=C(C1CC1)N1CCN(c2nc(-c3ccccc3Cl)nc3ccccc23)CC1 [Example 97, (4-(2-(2-Chlorophenyl)quinazolin-4-yl)piperazin-1-yl)(cyclopropyl)methanone] | – | + (+ indicates > 10−fold) | < 1000
CCC(=O)N1CCN(c2nc(-c3ccccc3Cl)nc3ccccc23)CC1 [Example 98, 1-(4-(2-(2-Chlorophenyl)quinazolin-4-yl)piperazin-1-yl)propan-1-one] | – | + (+ indicates > 10−fold) | < 1000
CC(=O)N1CCN(c2nc(-c3ccccc3Cl)nc3ccccc23)CC1 [Example 99, 1-(4-(2-(2-Chlorophenyl)quinazolin-4-yl)piperazin-1-yl)ethanone] | – | + (+ indicates > 10−fold) | < 1000

Structure (SMILES) | EC50 [1, 3] [nM] | Selectivity, CB2 vs. CB1 [2] | EC50 [1, 4] [nM]
CC1(C)C(C(=O)N2CCN(c3nc(-c4ccccc4Cl)nc4ccccc34)CC2)C1(C)C [Example 100, (4-(2-(2-Chlorophenyl)quinazolin-4-yl)piperazin-1-yl)(2,2,3,3-tetramethylcyclopropyl)methanone] | > 1000 | − (− indicates ≦ 10−fold) | –
CN(C)C(=O)C1CCN(c2nc(-c3ccccc3Cl)nc3ccccc23)CC1 [Example 102, 1-(2-(2-Chlorophenyl)quinazolin-4-yl)-N,N-dimethylpiperidine-4-carboxamide] | – | − (− indicates ≦ 10−fold) | > 1000
O=C(N1CCN(c2nc(-c3ccccc3Cl)nc3ccccc23)CC1)C(F)(F)F [Example 103, 1-(4-(2-(2-Chlorophenyl)quinazolin-4-yl)piperazin-1-yl)-2,2,2-trifluoroethanone] | – | − (− indicates ≦ 10−fold) | < 1000
FC(F)(F)CN1CCN(c2nc(-c3ccccc3Cl)nc3ccccc23)CC1 [Example 104, 2-(2-chlorophenyl)-4-(4-(2,2,2-trifluoroethyl)piperazin-1-yl)quinazoline] | – | − (− indicates ≦ 10−fold) | < 1000
CCN1CCN(c2nc(-c3ccccc3Cl)nc3ccccc23)CC1 [Example 105, 2-(2-chlorophenyl)-4-(4-ethylpiperazin-1-yl)quinazoline] | – | + (+ indicates > 10−fold) | < 1000
FC(F)(F)N1CCN(c2nc(-c3ccccc3Cl)nc3ccccc23)CC1 [Example 106, 2-(2-Chlorophenyl)-4-(4-(trifluoromethyl)piperazin-1-yl)quinazoline] | – | + (+ indicates > 10−fold) | < 1000
CCCCN1CCN(c2nc(-c3ccccc3Cl)nc3ccccc23)CC1 [Example 107] | – | − (− indicates ≦ 10−fold) | > 1000
CCCN1CCN(c2nc(-c3ccccc3Cl)nc3ccccc23)CC1 [Example 108, 2-(2-Chlorophenyl)-4-(4-propylpiperazin-1-yl)quinazoline] | – | + (+ indicates > 10−fold) | < 1000
CN1CCN(c2nc(-c3ccc(C(C)(C)C)cc3)nc3ccccc23)CC1 [Example 109, 2-(4-tert-Butylphenyl)-4-(4-methylpiperazin-1-yl)quinazoline] | – | + (+ indicates > 10−fold) | < 1000
CC(C)(C)c1ccc(-c2nc(N3CCCC3)c3ccccc3n2)cc1 [Example 110, 2-(4-tert-Butylphenyl)-4-(pyrrolidin-1-yl)quinazoline] | – | + (+ indicates > 10−fold) | < 1000
CC(C)(C)c1ccc(-c2nc(N3CCCCC3)c3ccccc3n2)cc1 [Example 111, 2-(4-tert-Butylphenyl)-4-(piperidin-1-yl)quinazoline] | – | − (− indicates ≦ 10−fold) | < 1000
CC(C)(C)c1ccc(-c2nc(N3CCOCC3)c3ccccc3n2)cc1 [Example 112, 4-(2-(4-tert-Butylphenyl)quinazolin-4-yl)morpholine] | – | − (− indicates ≦ 10−fold) | < 1000
CN(Cc1ccccc1)c1nc(-c2ccc(C(C)(C)C)cc2)nc2ccccc12 [Example 113, N-Benzyl-2-(4-tert-butylphenyl)-N-methylquinazolin-4-amine] | – | − (− indicates ≦ 10−fold) | > 1000
CC(C)(C)c1ccc(-c2nc(N3CCSCC3)c3ccccc3n2)cc1 [Example 114, 2-(4-tert-Butylphenyl)-4-thiomorpholin-4-ylquinazoline] | – | + (+ indicates > 10−fold) | < 1000
CC(C)(C)c1ccc(-c2nc(Nc3ccc(F)cc3F)c3ccccc3n2)cc1 [Example 115, 2-(4-tert-Butylphenyl)-N-(2,4-difluorophenyl)quinazolin-4-amine] | – | − (− indicates ≦ 10−fold) | > 1000
CN(c1ccc(F)cc1F)c1nc(-c2ccc(C(C)(C)C)cc2)nc2ccccc12 [Example 116, 2-(4-tert-Butylphenyl)-N-(2,4-difluorophenyl)-N-methylquinazolin-4-amine] | – | − (− indicates ≦ 10−fold) | > 1000
CC(C)(C)c1ccc(-c2nc(Nc3ccc(F)c(F)c3)c3ccccc3n2)cc1 [Example 117, 2-(4-tert-Butylphenyl)-N-(3,4-difluorophenyl)quinazolin-4-amine] | – | − (− indicates ≦ 10−fold) | < 1000
